Reference: paper PMC11945486, “TAS1R2/TAS1R3 Single-Nucleotide Polymorphisms Affect Sweet Taste Receptor Activation by Sweeteners: The SWEET Project” (Nutrients, 2025)

Target: T1, human TAS1R2-I234V (subunit alone) (Homo sapiens, UniProt Q8TE23, I234V)
T1 construct: expressed in transfected cells; host or cells: HEK293T-Gα16gust44
T1 sequence (Q8TE23 20-839 I234V): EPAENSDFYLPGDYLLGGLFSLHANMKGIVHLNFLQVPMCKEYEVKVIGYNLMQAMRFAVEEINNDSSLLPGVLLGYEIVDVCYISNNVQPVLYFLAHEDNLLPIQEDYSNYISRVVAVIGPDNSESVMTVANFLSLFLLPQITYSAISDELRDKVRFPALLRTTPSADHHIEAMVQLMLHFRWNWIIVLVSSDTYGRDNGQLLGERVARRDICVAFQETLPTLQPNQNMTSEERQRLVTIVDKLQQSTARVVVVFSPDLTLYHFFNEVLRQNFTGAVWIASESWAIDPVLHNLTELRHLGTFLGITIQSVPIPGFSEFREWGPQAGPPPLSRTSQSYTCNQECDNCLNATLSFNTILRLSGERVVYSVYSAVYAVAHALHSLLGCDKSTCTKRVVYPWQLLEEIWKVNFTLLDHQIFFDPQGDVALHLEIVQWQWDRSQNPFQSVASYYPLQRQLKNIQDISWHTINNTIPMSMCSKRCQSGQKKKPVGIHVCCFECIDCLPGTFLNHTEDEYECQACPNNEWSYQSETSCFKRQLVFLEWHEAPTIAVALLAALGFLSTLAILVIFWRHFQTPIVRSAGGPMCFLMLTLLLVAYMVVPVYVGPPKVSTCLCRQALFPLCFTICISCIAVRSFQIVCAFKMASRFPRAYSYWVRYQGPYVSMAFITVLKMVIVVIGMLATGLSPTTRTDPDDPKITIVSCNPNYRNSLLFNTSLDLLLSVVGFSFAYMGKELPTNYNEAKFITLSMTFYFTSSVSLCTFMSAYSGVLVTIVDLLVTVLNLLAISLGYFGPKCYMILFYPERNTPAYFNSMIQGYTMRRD
Experiment: Calcium mobilisation assay, TAS1R2-I234V subunit alone
Format: cell-based
Source text: The coding sequences for TAS1R2 and TAS1R3 were commercially synthesised, and the human codon was optimised for expression in human cells. The coding sequences of human TAS1R2 and TAS1R3 were subcloned and inserted into the mammalian expression vectors pcDNA6/myc-HisA and pcDNA4/myc-HisA (Invitrogen; Thermo Fisher Scientific; Illkirch, France) between the EcoRI and NotI restriction sites, generating the plasmids pcDNA6-TAS1R2 and pcDNA4-TAS1R3, respectively. To increase protein expression in mammalian cells, an upstream start codon was used, which was a sequence called MAX, corresponding to the QBI SP163 element also described in pcDNA4-HisMax (Invitrogen; Thermo Fisher Scientific; Illkirch, France). To measure the expression level of the receptor by immunohistochemistry, we used the FLAG sequence ([…]) in the C-terminal position, which encodes the FLAG tag epitope. […]
The HEK293T cells were kindly provided by Jay P. Slack (Givaudan Flavors Corporation; Cincinnati, OH, USA). […] The fluorescence intensity was measured for 90 s (excitation 488 nm, emission 510 nm) in an automated fluorometric FlexStation®3 Multi-Mode microplate reader (Molecular Devices; San Jose, CA, USA). […] The Ca^2+ changes were expressed as fractional changes in fluorescent light intensity: ΔF/F = (F − F0)/F0, where F was the fluorescent light intensity at each point, and F0 was the value of emitted fluorescent light prior to stimulus application. To calculate dose–response relationships, the changes in fluorescence upon stimulus application were averaged, mock-subtracted and baseline-corrected. […] The half-maximal effective concentrations (EC50 values) and maximal signal amplitudes were calculated using SigmaPlot software (version 15.0) (Systat Software; San Jose, CA, USA).
For in vitro calcium mobilisation assay performed on hTAS1R2-SNPs, hTAS1R3-SNPs and mTAS1R3-I60T, 6 to 7 concentrations were tested for each sweet compound, plus buffer alone. All concentration–receptor combinations were measured in duplicate, and each experiment was repeated at least 4 times (8 wells/concentration). […]

C=C(C)[C@@H]1CC=C(/C=N/O)CC1 [Perillartine, perillartine]
EC50: 311 ± 24.6 µM
R1 = Variant EC50/WT EC50: 3.5
Max ΔF/F0 (maximal signal amplitude): 0.29 ± 0.01
